Laboratory results taken from DBAASP.
Values after ≈ are worked out from the molar mass of the structure shown.

Key:
Assay in all cases: ≥ marks a high value that may be exact or a test limit, other limits are often not marked, values filed in µg/mL are converted to µM
[1] = tested on: Veillonella atypica PK1910
[2] = tested on: Streptococcus gordonii Challis DL1
[3] = tested on: Streptococcus sanguinis NY101
[4] = tested on: Lacticaseibacillus casei ATCC 4646
[5] = tested on: Streptococcus mutans
[6] = tested on: Streptococcus mitis ATCC 903
[7] = tested on: Aeromonas hydrophila BCRC 13018
[8] = tested on: Pseudomonas aeruginosa ATCC 19660
[9] = tested on: Vibrio alginolyticus
[10] = tested on: Vibrio vulnificus 204
[11] = tested on: Enterococcus faecalis BCRC 10066
[12] = tested on: Streptococcus agalactiae 819
[13] = tested on: Streptococcus agalactiae BCRC 10787
[14] = tested on: Staphylococcus epidermidis KCTC 1917
[15] = tested on: Staphylococcus aureus RN4220
[16] = tested on: Malassezia sympodialis ATCC 42132
[17] = tested on: Staphylococcus aureus KCTC 1621
[18] = tested on: Bacillus subtilis 168
[19] = tested on: Saccharomyces cerevisiae BY4741
[20] = tested on: Salmonella typhimurium KCTC 1926
[21] = tested on: Escherichia coli K-12
[22] = tested on: Pseudomonas aeruginosa KCTC 1637
[23] = tested on: Escherichia coli KCTC 1682
[24] = tested on: Candida albicans CA14
[25] = tested on: Bacillus subtilis KCTC 3068
[26] = tested on: Pseudomonas aeruginosa
[27] = tested on: Streptococcus pneumoniae BCRC 10794
[28] = tested on: Staphylococcus sp. BCRC 10451
[29] = tested on: Micrococcus luteus BCRC 11034
[30] = tested on: Streptococcus agalactiae
[31] = tested on: Staphylococcus aureus BCRC 10780
[32] = tested on: Vibrio harveyi BCRC 13812
[33] = tested on: Staphylococcus aureus
[34] = tested on: Bacillus cereus
[35] = tested on: Bacillus anthracis
[36] = tested on: Escherichia coli

`CC(C)C[C@H](NC(=O)[C@H](CC(C)C)NC(=O)[C@H](Cc1cnc[nH]1)NC(=O)[C@H](Cc1cnc[nH]1)NC(=O)[C@H](CC(C)C)NC(=O)[C@H](CCCCN)NC(=O)[C@H](CCCCN)NC(=O)[C@H](CC(C)C)NC(=O)[C@H](CC(C)C)NC(=O)[C@H](CCCN=C(N)N)NC(=O)[C@H](CCCN=C(N)N)NC(=O)[C@H](Cc1c[nH]c2ccccc12)NC(=O)[C@@H](N)CCCN=C(N)N)C(=O)N[C@@H](Cc1cnc[nH]1)C(=O)NCC(=O)NCC(=O)NCC(=O)N[C@@H](Cc1ccccc1)C(=O)N[C@@H](CCCCN)C(=O)N[C@@H](CCCCN)C(=O)N[C@@H](Cc1ccccc1)C(=O)N[C@@H](Cc1c[nH]c2ccccc12)C(=O)N[C@@H](CCCCN)C(=O)N[C@@H](Cc1c[nH]c2ccccc12)C(=O)N[C@@H](Cc1ccccc1)C(=O)N[C@@H](CCCN=C(N)N)C(=O)N[C@@H](CCCN=C(N)N)C(=O)N[C@@H](Cc1ccccc1)C(N)=O` [RWRRLLKKLHHLLHGGGFKKFWKWFRRF] gave an MIC [1] of 2.14 µM (≈ 8 µg/mL), an MIC [2] of 4.28 µM (≈ 16 µg/mL) and an MIC [3] of 4.28 µM (≈ 16 µg/mL). The MIC [4] was 2.14 µM (≈ 8 µg/mL), the MIC [5] was 1.51 µM (≈ 5.66 µg/mL) and the MIC [6] was 8.57 µM (≈ 32 µg/mL).

`CC[C@H](C)[C@H](NC(=O)[C@H](C)NC(=O)[C@H](CCCN=C(N)N)NC(=O)[C@H](Cc1cnc[nH]1)NC(=O)[C@@H](NC(=O)[C@H](C)NC(=O)[C@H](CCCN=C(N)N)NC(=O)[C@@H](NC(=O)CNC(=O)[C@H](Cc1cnc[nH]1)NC(=O)[C@H](CO)NC(=O)[C@@H](NC(=O)[C@H](Cc1c[nH]c2ccccc12)NC(=O)CNC(=O)[C@@H](NC(=O)[C@@H](NC(=O)[C@H](Cc1cnc[nH]1)NC(=O)[C@H](Cc1cnc[nH]1)NC(=O)[C@@H](NC(=O)[C@@H](N)Cc1ccccc1)[C@@H](C)CC)[C@@H](C)CC)[C@@H](C)CC)[C@@H](C)CC)C(C)C)[C@@H](C)CC)C(=O)N[C@@H](Cc1cnc[nH]1)C(=O)NCC(N)=O` [FIHHIIGWISHGVRAIHRAIHG] gave an MIC [7] of 7.82 µM (≈ 19.8 µg/mL), an MIC [8] of 7.82 µM (≈ 19.8 µg/mL) and an MIC [9] of 0.49 µM (≈ 1.24 µg/mL). For the same compound, the MIC [10] was 0.245 µM (≈ 0.62 µg/mL), the MIC [11] was 3.91 µM (≈ 9.89 µg/mL) and the MIC [12] was 3.91 µM (≈ 9.89 µg/mL). The MIC [13] was 0.123 µM (≈ 0.31 µg/mL).

In the case of `CC[C@H](C)[C@H](NC(=O)[C@H](CCCN=C(N)N)NC(=O)[C@H](CCCN=C(N)N)NC(=O)[C@H](CCCN=C(N)N)NC(=O)[C@H](CC(C)C)NC(=O)[C@@H](NC(=O)[C@@H](NC(=O)[C@H](CC(C)C)NC(=O)[C@@H](N)CC(C)C)[C@@H](C)CC)[C@@H](C)CC)C(=O)N[C@@H](CCCN=C(N)N)C(=O)N[C@@H](CCCCN)C(=O)N[C@@H](CCC(N)=O)C(=O)N[C@@H](C)C(=O)N[C@@H](Cc1cnc[nH]1)C(=O)N[C@@H](C)C(=O)N[C@@H](Cc1cnc[nH]1)C(=O)N[C@@H](CO)C(=O)N[C@@H](CCCCN)C(N)=O` [LLIILRRRIRKQAHAHSK], the MIC [14] is reported as 8 µM (≈ 17.7 µg/mL), the MIC [15] is reported as 10 µM (≈ 22.1 µg/mL) and the MIC [16] is reported as 4.98 µM (≈ 11 µg/mL). It also gave an MIC [17] of 4 µM (≈ 8.83 µg/mL), an MIC [18] of 10 µM (≈ 22.1 µg/mL) and an MIC [19] of 10 µM (≈ 22.1 µg/mL). For the same compound, the MIC [20] was 4 µM (≈ 8.83 µg/mL), the MIC [21] was 10 µM (≈ 22.1 µg/mL) and the MIC [22] was 8 µM (≈ 17.7 µg/mL). It also gave an MIC [23] of 16 µM (≈ 35.3 µg/mL), an MIC [24] of 10 µM (≈ 22.1 µg/mL) and an MIC [25] of 4 µM (≈ 8.83 µg/mL).

`CC[C@H](C)[C@H](NC(=O)[C@H](CCSC)NC(=O)[C@H](CCCCN)NC(=O)CNC(=O)[C@H](C)NC(=O)[C@H](Cc1cnc[nH]1)NC(=O)[C@H](Cc1ccccc1)NC(=O)[C@H](CC(C)C)NC(=O)CNC(=O)[C@H](CCCCN)NC(=O)[C@@H](NC(=O)[C@@H](NC(=O)[C@H](Cc1cnc[nH]1)NC(=O)[C@H](Cc1ccccc1)NC(=O)[C@@H](NC(=O)[C@H](Cc1ccccc1)NC(=O)CNC(C)=O)[C@@H](C)CC)[C@@H](C)CC)[C@@H](C)CC)C(=O)N[C@@H](Cc1cnc[nH]1)C(=O)NCC(=O)N[C@@H](CC(C)C)C(=O)N[C@H](C(N)=O)C(C)C` [GFIFHIIKGLFHAGKMIHGLV] gave an MIC [26] of 5.35 µM (≈ 12.7 µg/mL), an MIC [27] of 21.4 µM (≈ 50.9 µg/mL) and an MIC [28] of 2.68 µM (≈ 6.36 µg/mL). The MIC [9] was 2.68 µM (≈ 6.36 µg/mL), the MIC [29] was 2.68 µM (≈ 6.36 µg/mL) and the MIC [10] was 21.4 µM (≈ 50.9 µg/mL). The MIC [30] was ≥ 42.8 µM, the MIC [31] was 21.4 µM (≈ 50.9 µg/mL) and the MIC [32] was 2.68 µM (≈ 6.36 µg/mL). For the same compound, the MIC [33] was 5.35 µM (≈ 12.7 µg/mL).

With `CC(C)C[C@H](NC(=O)[C@H](Cc1ccccc1)NC(=O)[C@@H]1CCCN1C(=O)[C@H](Cc1ccccc1)NC(=O)[C@@H](NC(=O)[C@H](Cc1ccccc1)NC(=O)[C@H](CC(C)C)NC(=O)[C@@H](NC(=O)[C@H](CCCCN)NC(=O)[C@@H](NC(=O)[C@H](CCCCN)NC(=O)[C@H](CCCCN)NC(=O)[C@H](C)NC(=O)CNC(=O)[C@H](C)NC(=O)[C@@H](NC(=O)[C@H](CO)NC(=O)[C@@H](NC(=O)CN)C(C)C)C(C)C)C(C)C)C(C)C)C(C)C)C(=O)N[C@@H](Cc1ccccc1)C(=O)O` [GVSVAGAKKVKVLFVFPFLF] the MIC [34] was ≥ 119 µM, the MIC [35] was ≥ 119 µM and the MIC [36] was > 119 µM. The MIC [33] was > 119 µM.
